Experimental data: patent US8389468B2, “Approach to the treatment of compartment syndrome” (Lantmannen AS-Faktor AB, priority 2006, dated 2013)

Key:
Assay type in all cases: in vivo, rat
femoral artery = assay: Injured arteries, local delivery by osmotic minipump
Text: During surgery and at a trauma arteries may be injured, causing the vascular wall to swell. These events will result in the development of elevated IFP in the vascular wall, resulting in inflammatory reactions and rebuilding (Hansson, Jennische & Skottner, 1987). […] Additional animals had for comparison their pumps filled with the vehicle. The injured arteries were investigated either 3, 5, 7 or 14 days later. Blood vessels recovered from the vehicle-treated animals were tender, had increased outer diameter and were swollen. […] The potency rate was higher for those treated with AF-16 as compared to the vehicle exposed ones. […] Further, the number of macrophages, foam cells and lymphocytes was as well reduced by the AF-16 treatment.

[1] = test system: flotillin-1 and aquaporin 1 immunoreactivities in the choroid plexus; assay: Immunohistochemistry of flotillin-1 and aquaporin 1 in choroid plexus of HSV-1 infected rats; conditions: hardly demonstrable with vehicle
Protocol: Therefore, rats were infected by instillation in their right nostril of 25 μL of a solution of the herpes simplex virus type 1 (HSV-1; strain 2762, batch 041028; 1.7×10^7 PFU/mL). Half of the animals received 10 min later 25 μL (1, 10 or 25 pg) of AF-16 in their right nostril, and had thereafter the same dose of AF-16 instilled every morning at 8 AM and every night at 6 PM until the experiment was terminated on day 14. The other half of the group of HSV-1 infected rats received 25 μL of the vehicle, PBS, at the same time schedule. The animals were several times daily closely watched for signs of behavioral dysfunction or general sickness. If so, the animals were sacrificed. The FIG. 3 is illustrating the survival rates for the animals, all being infected with HSV-1. […] In contrast, the HSV-1 infected rats, receiving just the vehicle (n=15), died to a large extent and only 10% were still surviving at the end of the test period, day 14 (FIG. 3). All of the vehicle treated, infected rats developed signs of neurological dysfunctions. […] It ought to be stressed that the extent and severity of the damage were depending on the duration of the exposure and to the level of elevated ICP as well as to the survival time. […]

sciatic nerve = assay: Sciatic nerve crush, intraneural pressure
Text: Peripheral and autonomic nerves are all delimited by an endoneurium, an perineurium and outermost an epineurium. Multiple nerve fascicles form a nerve (Cf. Hansson et al., 1987). Tendons and some of the ligaments in a body are delimited by a tender collagen membrane-like structure, the synovial sheath. The inner border layer of the latter connect the tendon with its synovial vagina, which enable sliding at minimal friction. The periphery of the latter structure is enclosed by a fibrous, membrane-like layer, the fibrous vagina. The enclosing paratendinium is in some locations hold in position and receiving nutrition by mesotendons and by vinculae (Cf. Hansson et al., 1980). […] Such a procedure resulted not only in impaired nerve function and structure but also in impaired blood and lymph circulation, and caused swelling of the sciatic nerve, the development of oedema, which included adjacent and enveloping structures, The IFP turned elevated, as assessed by the insertion of a Samba fibre optic pressure measuring probe in the affected tissue. […] The pressure in the perineurium was determined to become elevated in a day in those treated with just the vehicle, in agreement with the macroscopically recognized swelling and local oedema, i.e. having developed a CS. […]

For VCHSKTRSNPENNVGL [AF-16], which “swelling and inflammation of injured vessels” value (femoral artery; 3, 5, 7 or 14 days, vs vehicle) is on record?
The value was “less swollen and inflamed”.

And the “damage, inflammatory reactions and reactive alterations (neointima) of femoral artery” value (femoral artery; after 14 days, vs vehicle)?
The value was “less damage and less prominent inflammatory reactions and less extensive reactive alterations”.

What about the “number of macrophages, foam cells and lymphocytes” value (femoral artery; rat, in vivo) of the same sequence?
Its value is “reduced”.

What about the potency rate (femoral artery; vs vehicle) of the same sequence?
Its potency rate is “higher”.

And the “aquaporin 1 immunoreactivity in the choroid plexus” value [1]?
The value was “readily demonstrable”.

And the “flotillin-1 immunoreactivity in the choroid plexus” value [1]?
Its value is “readily demonstrable”.

What about the intraneural pressure (sciatic nerve; crushed sciatic nerve, high dose from time of injury) of the same sequence?
The intraneural pressure was “slightly elevated or close to that measured in a normal nerve”.

And the “inflammation, oedema and tissue distortion (light microscopy)” value (sciatic nerve; injured sciatic nerves)?
Its value is “reduced the inflammation and the oedema and the tissue distortion”.
